Assay results published in EP1433789A1, “Pyrrolopyrazines and their use as selective apoptosis inducers” (Aponetics AG, priority 2002, dated 2004).
pIC50: −log10 of the molar value.

Columns and labels:
[1] = tested on: A20; assay: Hoechst 33342 nuclear staining (Table 3); format: cell-based, mouse; parameters: key: 0 relating to no activity; 1 relating to weak activity comprising less than 50% of the cells; score 2 relating to strong activity comprising more than 50% of the cells
Procedure, shortened: (§1)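 Adherent cells (3-5×10^3, pre-spread 24 h) or suspension cells (8-10×10^3) treated with compounds at 10, 3, 1 and 0.3 µM for 24 or 48 h, then Hoechst 33342 stained for 30 min. Apoptotic nuclear morphology scored by fluorescence microscopy: 0 none, 1 weak (<50% cells), 2 strong (>50% cells).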

[2] = tested on: HeLa; assay: Hoechst 33342 nuclear staining (Table 3); format: cell-based, human; parameters: key: 0 relating to no activity; 1 relating to weak activity comprising less than 50% of the cells; score 2 relating to strong activity comprising more than 50% of the cells
Procedure, shortened: as §1

[3] = tested on: K562; assay: Hoechst 33342 nuclear staining (Table 3); format: cell-based, human; parameters: key: 0 relating to no activity; 1 relating to weak activity comprising less than 50% of the cells; score 2 relating to strong activity comprising more than 50% of the cells
Procedure, shortened: as §1

[4] = tested on: Jurkat; assay: Hoechst 33342 nuclear staining (Table 3); format: cell-based, human; parameters: key: 0 relating to no activity; 1 relating to weak activity comprising less than 50% of the cells; score 2 relating to strong activity comprising more than 50% of the cells
Procedure, shortened: as §1

[5] = tested on: KB; assay: Hoechst 33342 nuclear staining (Table 3); format: cell-based, human; parameters: key: 0 relating to no activity; 1 relating to weak activity comprising less than 50% of the cells; score 2 relating to strong activity comprising more than 50% of the cells
Procedure, shortened: as §1

[6] = tested on: Ramos; assay: AnnexinV/7-AAD staining; format: cell-based, human; settings: 10 µM, 24 h treatment
Procedure, shortened: (§2)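 Cells treated with compound at 10 µM final for 24 h, then stained with AnnexinV-GST/anti-GST Alexa 488 and 7-AAD and analysed by flow cytometry. Percent positive cells scored as 0 (<10%), 1 (10–50%) or 2 (>50%).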

[7] = tested on: HeLa; assay: AnnexinV/7-AAD staining; format: cell-based, human; settings: 10 µM, 24 h treatment
Procedure, shortened: as §2

[8] = tested on: Jurkat; assay: AnnexinV/7-AAD staining; format: cell-based, human; settings: 10 µM, 24 h treatment
Procedure, shortened: as §2

[9] = tested on: A20; assay: AnnexinV/7-AAD staining; format: cell-based, mouse; settings: A20, 10 µM, 24 h treatment
Procedure, shortened: as §2

[10] = tested on: HeLa; assay: MTS proliferation assay; format: cell-based; settings: Homo sapiens, 72 h incubation
Procedure, shortened: (§3)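 Cells (1.5*10^3–10^4/well) seeded 24 h before treatment, then exposed 72 h to compound at 10, 3, 1 or 0.3 µM final (≤5% DMSO in added medium). Viability by MTS reagent, 3 h further incubation, absorbance at 492 nm.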

[11] = tested on: K562; assay: MTS proliferation assay; format: cell-based; settings: Homo sapiens, K562, 72 h incubation
Procedure, shortened: as §3

[12] = tested on: Jurkat; assay: MTS proliferation assay; format: cell-based; settings: Homo sapiens, 72 h incubation
Procedure, shortened: as §3

## CC1Cc2ccccc2-c2c(Cl)c3nc4ccccc4nc3n21 (stereo not shown) [compound 11]
[1]; A20, 24h, conc 1 (µM)
  Hoechst 33342 nuclear staining: 0
[1]; A20, 24h, conc 3 (µM)
  Hoechst 33342 nuclear staining: 0
[1]; A20, 24h, conc 10 (µM)
  Hoechst 33342 nuclear staining: 0
[1]; A20, 48h, conc 0.3 (µM)
  Hoechst 33342 nuclear staining: 0
[1]; A20, 48h, conc 1 (µM)
  Hoechst 33342 nuclear staining: 0
[1]; A20, 48h, conc 3 (µM)
  Hoechst 33342 nuclear staining: 0
[1]; A20, 48h, conc 10 (µM)
  Hoechst 33342 nuclear staining: 2 (score 2 relating to strong activity comprising more than 50% of the cells)
[2]; 24h, conc 0.3 (µM)
  Hoechst 33342 nuclear staining: 0
[2]; 24h, conc 1 (µM)
  Hoechst 33342 nuclear staining: 0
[2]; 24h, conc 3 (µM)
  Hoechst 33342 nuclear staining: 0
[2]; 24h, conc 10 (µM)
  Hoechst 33342 nuclear staining: 0
[2]; 48h, conc 0.3 (µM)
  Hoechst 33342 nuclear staining: 0
[2]; 48h, conc 1 (µM)
  Hoechst 33342 nuclear staining: 0
[2]; 48h, conc 3 (µM)
  Hoechst 33342 nuclear staining: 0
[2]; 48h, conc 10 (µM)
  Hoechst 33342 nuclear staining: 2 (score 2 relating to strong activity comprising more than 50% of the cells)
[3]; K562, 24h, conc 0.3 (µM)
  Hoechst 33342 nuclear staining: 0
[3]; K562, 24h, conc 1 (µM)
  Hoechst 33342 nuclear staining: 0
[3]; K562, 24h, conc 3 (µM)
  Hoechst 33342 nuclear staining: 0
[3]; K562, 24h, conc 10 (µM)
  Hoechst 33342 nuclear staining: 2 (score 2 relating to strong activity comprising more than 50% of the cells)
[3]; K562, 48h, conc 0.3 (µM)
  Hoechst 33342 nuclear staining: 0
[3]; K562, 48h, conc 1 (µM)
  Hoechst 33342 nuclear staining: 0
[3]; K562, 48h, conc 3 (µM)
  Hoechst 33342 nuclear staining: 1 (1 relating to weak activity comprising less than 50% of the cells)
[3]; K562, 48h, conc 10 (µM)
  Hoechst 33342 nuclear staining: 2 (score 2 relating to strong activity comprising more than 50% of the cells)
[4]; 24h, conc 0.3 (µM)
  Hoechst 33342 nuclear staining: 0
[4]; 24h, conc 1 (µM)
  Hoechst 33342 nuclear staining: 0
[4]; 24h, conc 3 (µM)
  Hoechst 33342 nuclear staining: 2 (score 2 relating to strong activity comprising more than 50% of the cells)
[4]; 24h, conc 10 (µM)
  Hoechst 33342 nuclear staining: 2 (score 2 relating to strong activity comprising more than 50% of the cells)
[4]; 48h, conc 0.3 (µM)
  Hoechst 33342 nuclear staining: 1 (1 relating to weak activity comprising less than 50% of the cells)
[4]; 48h, conc 1 (µM)
  Hoechst 33342 nuclear staining: 2 (score 2 relating to strong activity comprising more than 50% of the cells)
[4]; 48h, conc 3 (µM)
  Hoechst 33342 nuclear staining: 2 (score 2 relating to strong activity comprising more than 50% of the cells)
[4]; 48h, conc 10 (µM)
  Hoechst 33342 nuclear staining: 2 (score 2 relating to strong activity comprising more than 50% of the cells)
[5]; 24h, conc 0.3 (µM)
  Hoechst 33342 nuclear staining: 0
[5]; 24h, conc 1 (µM)
  Hoechst 33342 nuclear staining: 0
[5]; 24h, conc 3 (µM)
  Hoechst 33342 nuclear staining: 0
[5]; 24h, conc 10 (µM)
  Hoechst 33342 nuclear staining: 0
[5]; 48h, conc 0.3 (µM)
  Hoechst 33342 nuclear staining: 0
[5]; 48h, conc 1 (µM)
  Hoechst 33342 nuclear staining: 0
[5]; 48h, conc 3 (µM)
  Hoechst 33342 nuclear staining: 1 (1 relating to weak activity comprising less than 50% of the cells)
[5]; 48h, conc 10 (µM)
  Hoechst 33342 nuclear staining: 2 (score 2 relating to strong activity comprising more than 50% of the cells)
[6]
  percentage of positively stained cells (AnnexinV/7-AAD staining): 2 (score 2 relates to more than 50% positivity)
[7]
  percentage of positively stained cells (AnnexinV/7-AAD staining): 1 (score 1 relates to more than 10% but less than 50%)
[8]
  percentage of positively stained cells (AnnexinV/7-AAD staining): 0 (Score 0 relates to less than 10%)
[9]
  percentage of positively stained cells (AnnexinV/7-AAD staining): 1 (score 1 relates to more than 10% but less than 50%)
[10]
  pIC50: < 5.00
[11]
  pIC50: < 5.00
[12]
  pIC50: < 5.00
